Data from US20260042731A1, “(2,4-DICHLOROPHENOXY)ACETIC ACID ANALOGS” (CORTEVA AGRISCIENCE LLC, priority 2022, published 2026).
Read-outs that look alike come from different tables or passages of the source.

Legend:
[1] = system: Ambrosia artemisiifolia (AMBEL), common ragweed; experiment: Postemergence herbicide evaluation, growth of Ambrosia artemisiifolia (AMBEL); assay type: in vivo; conditions: Ambrosia artemisiifolia, post-emergence, read-out: AVE. AMBEL
[2] = system: Chenopodium album (CHEAL), common lambsquarters; experiment: Postemergence herbicide evaluation, growth of Chenopodium album (CHEAL); assay type: in vivo; conditions: Chenopodium album, post-emergence, read-out: Ave. CHEAL
[3] = system: Abutilon theophrasti (ABUTH), velvetleaf; experiment: Postemergence herbicide evaluation, growth of Abutilon theophrasti (ABUTH); assay type: in vivo; conditions: Abutilon theophrasti, post-emergence, read-out: AVE. ABUTH
[4] = system: Amaranthus rudis (AMATA), tall water hemp; experiment: Postemergence herbicide evaluation, growth of Amaranthus rudis (AMATA); assay type: in vivo; conditions: Amaranthus tuberculatus, post-emergence, read-out: Ave. AMATA
[5] = Volatility of compounds measured by thermogravimetric analysis (TGA); assay type: physicochemical
[6] = system: weeds (ABUTH, AMATA, AMBEL, CHEAL, ERICA); experiment: Postemergence herbicide evaluation, overall average % weed control across ABUTH, AMATA, AMBEL, CHEAL, ERICA; assay type: in vivo; conditions: post-emergence, read-out: Overall Ave % Weed Control
[7] = system: glyphosate resistant Conyza canadensis (L.) (ERICA), horseweed; experiment: Postemergence herbicide evaluation, growth of Conyza canadensis (ERICA); assay type: in vivo; conditions: Erigeron canadensis, post-emergence, read-out: Ave. ERICA
[8] = 168 h, 280 g ae/ha, 7 DAA, percent reduction in plant size relative to untreated control
[9] = 168 h, 560 g ae/ha, 7 DAA, percent reduction in plant size relative to untreated control
[10] = 336 h, 280 g ae/ha, 14 DAA, percent reduction in plant size relative to untreated control
[11] = 336 h, 560 g ae/ha, 14 DAA, percent reduction in plant size relative to untreated control
[12] = 504 h, 280 g ae/ha, 21 DAA, percent reduction in plant size relative to untreated control
[13] = 504 h, 560 g ae/ha, 21 DAA, percent reduction in plant size relative to untreated control
[14] = 168 h, 280 g ae/ha, 7 DAA, average over the five weeds
[15] = 168 h, 560 g ae/ha, 7 DAA, average over the five weeds
[16] = 336 h, 280 g ae/ha, 14 DAA, average over the five weeds
[17] = 336 h, 560 g ae/ha, 14 DAA, average over the five weeds
[18] = 504 h, 280 g ae/ha, 21 DAA, average over the five weeds
[19] = 504 h, 560 g ae/ha, 21 DAA, average over the five weeds

In the case of O=C(COc1ccc(Cl)cc1Cl)NOc1ccccc1 [Compound D7], the pest or weed control at 280 g/ha [1, 8] is reported as 63%, the pest or weed control at 560 g/ha [1, 9] is reported as 73% and the pest or weed control at 280 g/ha [1, 10] is reported as 83%. For the same compound, the pest or weed control at 560 g/ha [1, 11] was 89%, the pest or weed control at 280 g/ha [1, 12] was 95% and the pest or weed control at 560 g/ha [1, 13] was 97%. For the same compound, the pest or weed control at 280 g/ha [2, 8] was 65%, the pest or weed control at 560 g/ha [2, 9] was 68% and the pest or weed control at 280 g/ha [2, 10] was 70%. It also gave a pest or weed control at 560 g/ha [2, 11] of 75%, a pest or weed control at 280 g/ha [2, 12] of 70% and a pest or weed control at 560 g/ha [2, 13] of 78%. The pest or weed control at 280 g/ha [3, 8] was 68%, the pest or weed control at 560 g/ha [3, 9] was 80% and the pest or weed control at 280 g/ha [3, 10] was 68%. For the same compound, the pest or weed control at 560 g/ha [3, 11] was 85%, the pest or weed control at 280 g/ha [3, 12] was 70% and the pest or weed control at 560 g/ha [3, 13] was 92%. The pest or weed control at 280 g/ha [4, 8] was 73%, the pest or weed control at 560 g/ha [4, 9] was 80% and the pest or weed control at 280 g/ha [4, 10] was 83%. The pest or weed control at 560 g/ha [4, 11] was 90%, the pest or weed control at 280 g/ha [4, 12] was 83% and the pest or weed control at 560 g/ha [4, 13] was 83%. For the same compound, the “TGA Data (rate of weight loss, volatility)” value [5] was 0.2 µg/min, the pest or weed control at 280 g/ha [6, 14] was 66% and the pest or weed control at 560 g/ha [6, 15] was 73%. The pest or weed control at 280 g/ha [6, 16] was 77%, the pest or weed control at 560 g/ha [6, 17] was 85% and the pest or weed control at 280 g/ha [6, 18] was 82%. The pest or weed control at 560 g/ha [6, 19] was 89%, the pest or weed control at 280 g/ha [7, 8] was 63% and the pest or weed control at 560 g/ha [7, 9] was 63%. For the same compound, the pest or weed control at 280 g/ha [7, 10] was 83%, the pest or weed control at 560 g/ha [7, 11] was 85% and the pest or weed control at 280 g/ha [7, 12] was 95%. It also gave a pest or weed control at 560 g/ha [7, 13] of 95%.
Work on N#C/C(=N\OC(=O)COc1ccc(Cl)cc1Cl)c1ccccc1 [Compound A6, N-(2-(2,4-Dichlorophenoxy)acetoxy)benzimidoyl cyanide] yielded a pest or weed control at 280 g/ha ([1]; 168 h) of 68%, a pest or weed control at 560 g/ha ([1]; 168 h) of 70% and a pest or weed control at 280 g/ha ([1]; 336 h) of 93%. The pest or weed control at 560 g/ha ([1]; 336 h) was 95%, the pest or weed control at 280 g/ha ([1]; 504 h) was 98% and the pest or weed control at 560 g/ha ([1]; 504 h) was 100%. For the same compound, the pest or weed control at 280 g/ha ([2]; 168 h) was 68%, the pest or weed control at 560 g/ha ([2]; 168 h) was 68% and the pest or weed control at 280 g/ha ([2]; 336 h) was 83%. It also gave a pest or weed control at 560 g/ha ([2]; 336 h) of 78%, a pest or weed control at 280 g/ha ([2]; 504 h) of 94% and a pest or weed control at 560 g/ha ([2]; 504 h) of 73%. For the same compound, the pest or weed control at 280 g/ha ([3]; 168 h) was 78%, the pest or weed control at 560 g/ha ([3]; 168 h) was 90% and the pest or weed control at 280 g/ha ([3]; 336 h) was 75%. The pest or weed control at 560 g/ha ([3]; 336 h) was 85%, the pest or weed control at 280 g/ha ([3]; 504 h) was 80% and the pest or weed control at 560 g/ha ([3]; 504 h) was 94%. For the same compound, the pest or weed control at 280 g/ha ([4]; 168 h) was 80%, the pest or weed control at 560 g/ha ([4]; 168 h) was 75% and the pest or weed control at 280 g/ha ([4]; 336 h) was 83%. For the same compound, the pest or weed control at 560 g/ha ([4]; 336 h) was 78%, the pest or weed control at 280 g/ha ([4]; 504 h) was 73% and the pest or weed control at 560 g/ha ([4]; 504 h) was 81%. For the same compound, the “TGA Data (rate of weight loss, volatility)” value [5] was 7.2 µg/min, the pest or weed control at 280 g/ha ([6]; 168 h) was 72% and the pest or weed control at 560 g/ha ([6]; 168 h) was 75%. The pest or weed control at 280 g/ha ([6]; 336 h) was 84%, the pest or weed control at 560 g/ha ([6]; 336 h) was 84% and the pest or weed control at 280 g/ha ([6]; 504 h) was 88%. For the same compound, the pest or weed control at 560 g/ha ([6]; 504 h) was 89%, the pest or weed control at 280 g/ha ([7]; 168 h) was 65% and the pest or weed control at 560 g/ha ([7]; 168 h) was 73%. The pest or weed control at 280 g/ha ([7]; 336 h) was 88%, the pest or weed control at 560 g/ha ([7]; 336 h) was 88% and the pest or weed control at 280 g/ha ([7]; 504 h) was 98%. It also gave a pest or weed control at 560 g/ha ([7]; 504 h) of 98%.
For CCOC(=O)C(=NOC(=O)COc1ccc(Cl)cc1Cl)C(=O)OCC [Compound A7, Diethyl 2-((2-(2,4-dichlorophenoxy)acetoxy)imino)malonate], the pest or weed control at 280 g/ha [1, 8] was 63%, the pest or weed control at 560 g/ha [1, 9] was 70% and the pest or weed control at 280 g/ha [1, 10] was 83%. The pest or weed control at 560 g/ha [1, 11] was 95%, the pest or weed control at 280 g/ha [1, 12] was 92% and the pest or weed control at 560 g/ha [1, 13] was 98%. It also gave a pest or weed control at 280 g/ha [2, 8] of 68%, a pest or weed control at 560 g/ha [2, 9] of 70% and a pest or weed control at 280 g/ha [2, 10] of 75%. The pest or weed control at 560 g/ha [2, 11] was 73%, the pest or weed control at 280 g/ha [2, 12] was 73% and the pest or weed control at 560 g/ha [2, 13] was 78%. It also gave a pest or weed control at 280 g/ha [3, 8] of 75%, a pest or weed control at 560 g/ha [3, 9] of 88% and a pest or weed control at 280 g/ha [3, 10] of 83%. For the same compound, the pest or weed control at 560 g/ha [3, 11] was 89%, the pest or weed control at 280 g/ha [3, 12] was 92% and the pest or weed control at 560 g/ha [3, 13] was 94%. It also gave a pest or weed control at 280 g/ha [4, 8] of 73%, a pest or weed control at 560 g/ha [4, 9] of 78% and a pest or weed control at 280 g/ha [4, 10] of 83%. For the same compound, the pest or weed control at 560 g/ha [4, 11] was 88%, the pest or weed control at 280 g/ha [4, 12] was 90% and the pest or weed control at 560 g/ha [4, 13] was 88%. For the same compound, the “TGA Data (rate of weight loss, volatility)” value [5] was 4.7 µg/min, the pest or weed control at 280 g/ha [6, 14] was 69% and the pest or weed control at 560 g/ha [6, 15] was 76%. The pest or weed control at 280 g/ha [6, 16] was 82%, the pest or weed control at 560 g/ha [6, 17] was 85% and the pest or weed control at 280 g/ha [6, 18] was 88%. The pest or weed control at 560 g/ha [6, 19] was 89%, the pest or weed control at 280 g/ha [7, 8] was 68% and the pest or weed control at 560 g/ha [7, 9] was 73%. For the same compound, the pest or weed control at 280 g/ha [7, 10] was 89%, the pest or weed control at 560 g/ha [7, 11] was 83% and the pest or weed control at 280 g/ha [7, 12] was 93%. The pest or weed control at 560 g/ha [7, 13] was 90%.
